Experiments:
[1] = tested on: p38, JNK1, ERK1/2, PKC, or Src-like kinases; settings: cited from earlier work
SARS-CoV-2 [2] = assay: microbe, parasite or virus in culture; assay type: cell-based; settings: 1.25 μM, n4
SARS-CoV-2 [3] = assay: SARS-CoV-2 antiviral activity, mono treatment or combinations, Vero E6 cells (Test 18); assay type: cell-based; settings: 10, 5, 2.5, 1.25, 0.625 μM; FIG. 10
Description: SARV-CoV-2 antiviral activity of VSP035 from mono treatment, or in combination with various pharmacological drug substances at various concentrations shown by the bars from left to the right. Y axis % Inhibition. Due to lethal concentrations for Vero E6 cells, dose dependency is visible at non-lethal doses only (median of multiple experiments n4 is shown); Concentrations (left to right) Compounds and respective assay concentrations in μM are, “constant” means same concentration for the series (X axis, numbers for series): (FIG. 10).

PDL-1 = assay: Western blot of PDL-1 in CaSki cells; assay type: cell-based, human; settings: 4 and 8 hours, dose dependent
Procedure: 24 h after seeding, cells were treated with VSP035, cycloheximide (CHX) and/or MG132 protasome inhibitor as indicated. Cells were harvested for analysis for BY WB. […] In particular, faster migrating band abundancy was regulated by proteasome inhibitor MG132 and the protein was destabilized in the presence of CHX.

SARS-CoV-2 [4] = assay type: cell-based
HPV16 E7 protein = HPV16 E7 protein (Human papillomavirus type 16, UniProt P03129); assay: Western blot of E7 steady state level in CaSki cells; assay type: cell-based; settings: 10 μM, up to 24 hours
Procedure: Reagents for Extract preparation and Western Blotting: Extraction Buffer: 2.5× (Tris 0.25M pH6.8, Glycerol 50%, SDS 10%), Gels: 4-12% gradient gels (Bolt® 4-12% Bis-Tris Plus Gel). MES Buffer: 50 mM MES, 50 mM Tris Base, 0.1% SDS, 1 mM EDTA, pH 7.3, Blotting membrane: Nitrocelulose 0.2 μm (Whatman Protran #10401394), 3MM filter paper (e.g. Whatman 3MM Chr, #3030917). Western Detection Reagents: WB Wash Buffer 1× (TBET): 20 mM Tris, 150 mM NaCl, 0.125% Tween20, pH 7.8; skim-milk powder (less than 0.15% fat content). Phosphate buffered saline (PBS) 1×: prepared as 1 L add 8 g sodium chloride (NaCl), 0.2 g potassium chloride (KCl), 1.44 g sodium phosphate, dibasic (Na2HPO4) and 0.24 g potassium phosphate, monobasic (KH2PO4) to 1 L dH2O, pH adjusted to 7.2.
B) For cells in cell culture the following procedure for the preparation of a total cell extract is used. Freshly seeded cells are grown for 24 hours to obtain 65-75% confluency (corresponds for CaSki cells to a plating of approx. 2×10^6 cells/10 cm Ø cell culture dish). Cell culture dishes with medium are out on ice for 5 minutes. […]
Dilute secondary anti-mouse HRP antibody in WB Blocking Buffer according to manufacturer instruction (e.g. CST Anti mouse IgG HRP-linked Ab, #7076, 1:3000). […] The membranes are developed using standard chemo luminescence (ECL) detection systems following imaging with Licor or Viber devices. […]

[5] = Pharmacokinetics of VSP034 and VSP035, oral liposomal formulation; assay type: in vivo, female Sprague-Dawley rats; settings: 100 mg/kg oral gavage; Student's t test, significant
Procedure: The pharmacokinetic parameters of VSP034 and VSP035 encapsulated as liposomal formulation were assessed after the administration of a single 100 mg/kg dose by oral gavage to 6 female Sprague-Dawley rats weighting 250 grams (±25g). The animals were randomized into two experimental groups (Groups 1 and 2), each composed of 3 rats. Rats belonging to group 1 were administered with VSP034 and rats belonging to group 2 were administered with VSP035. Blood was collected at baseline and 15 min, 30 min, 1, 2, 4, 6, 8, and 24 hours after the oral gavage. The rats were sacrificed 24 hours after the dosing. Blood was collected at each timepoint from the caudal vein, with the exception of the last collection (24 hours), which was performed by intracardiac puncture at the moment of sacrifice under isoflurane anesthesia. The animals were weighted immediately before the dosing to assess the proper dose and carefully monitored during the experiment. […] The main pharmacokinetic parameters (half-life, t1/2; time to maximum plasma concentration, Tmax; maximum plasma concentration, Cmax, AUC Extrapolated to Infinity, AUC0-inf; mean residence time, MRT; Apparent Volume of Distribution During Terminal Phase, VZ/F; and apparent oral clearance, CL/F) were calculated from the coefficients and exponents of the best-fits by using standard formulae.

4E-BP1 = assay: Western blot of 4E-BP1 phosphorylation in CaSki cells; assay type: cell-based, human; settings: 6 h, 10 μM & 5 μM
Description: Thus, clearly distinguishing downstream-effects in comparison to a general TOR Kinase inhibition.

Chain of HPV16 E7 protein (P03129 whole entry): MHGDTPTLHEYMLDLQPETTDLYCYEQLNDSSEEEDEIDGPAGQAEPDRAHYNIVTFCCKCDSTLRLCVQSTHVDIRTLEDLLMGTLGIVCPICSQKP

| Compound | inhibitory activity against p38, JNK1, ERK1/2, PKC, or Src-like kinases [1] | % Inhibition of SARV-CoV-2 virus activity (SARS-CoV-2 [2]) [%] | antiviral activity as single agent (SARS-CoV-2 [3]) | regulation of PDL-1 (western blot) (PDL-1) | inhibition (SARS-CoV-2 [4]) [%] | HPV 16 E7 protein degradation time course (western blot) (HPV16 E7 protein) | AUC higher than that of VSP034 [5] [fold] | phosphorylation state of 4E-BP1 (4E-BP1) |
| --- | --- | --- | --- | --- | --- | --- | --- | --- |
| Nc1ncnc2n[nH]c(Nc3ccc(F)cc3)c12 [CGP57380] | no inhibitory activity | 17.71 | – | – | – | – | – | – |
| CN1CCC(CN2C(=O)c3ccccc3[C@H](C(=O)Nc3cccc(N4CCN(C)CC4)c3)[C@H]2c2ccc(C(F)(F)F)cc2)CC1 [VSP035, (3S,4S)—N-[3-(4-methylpiperazin-1-yl)phenyl]-2-[(1-methylpiperidin-4-yl)methyl]-1-oxo-3-[4-(trifluoromethyl)phenyl]-1,2,3,4-tetrahydroisoquinoline-4-carboxamide] | – | – | Robust antiviral activities | valid pdl-1 destabilizer | 72±7.7 | stable e7 reduction | 4 | dose dependent hypophosphorylation |
